Reference: US20260001928A1 (CORTERIA PHARMACEUTICALS, priority 2022, published 2026)
*1 amine or outer side, *2 acyl side, *3 side chain or, on linkers, in order; H or OH if unused. Where a SMILES comes first, the peptide text is derived from it. Side-chain parts run from the residue outwards. [ ]: non-standard residue; d: D form. The star is where a group is joined. C20 diacid = O=C(O)CCCCCCCCCCCCCCCCCCC(=O)*; C18 diacid = O=C(O)CCCCCCCCCCCCCCCCC(=O)*; C16 diacid = O=C(O)CCCCCCCCCCCCCCC(=O)*; γGlu = O=C(O)[C@H](CCC(=O)[*:2])N[*:1]; AEEA = NCCOCCOCC(=O)O; Aib = CC(C)(N)C(=O)O

Legend:
[1] = target: T1, human CRF2a receptor (Homo sapiens, UniProt Q13324); assay: Activity at human CRF2a receptor, cAMP functional assay in TeloHEAC cells; assay type: cell-based; details: TeloHEAC cells stably expressing human CRF2a receptor, relative to urocortin 2 (100 nM = 100%)
T1 construct: expressed in transfected cells; host or cells: TeloHEAC cells
T1 sequence (Q13324 1-411): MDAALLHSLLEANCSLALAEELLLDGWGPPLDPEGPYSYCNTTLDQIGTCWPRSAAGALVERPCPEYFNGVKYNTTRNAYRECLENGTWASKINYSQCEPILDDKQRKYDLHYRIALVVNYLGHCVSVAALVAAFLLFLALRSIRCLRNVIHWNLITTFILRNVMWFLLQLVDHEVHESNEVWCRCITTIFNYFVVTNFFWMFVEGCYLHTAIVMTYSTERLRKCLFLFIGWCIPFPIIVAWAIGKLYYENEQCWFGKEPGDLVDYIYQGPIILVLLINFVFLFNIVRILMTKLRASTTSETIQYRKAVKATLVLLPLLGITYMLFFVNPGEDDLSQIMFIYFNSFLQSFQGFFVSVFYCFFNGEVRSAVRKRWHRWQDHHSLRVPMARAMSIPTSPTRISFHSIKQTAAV
Method in brief: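 cAMP accumulation was measured by HTRF 665/620 nm ratio after 30 min at 37° C compound exposure (16 twofold dilutions) of CRF2a-expressing TeloHEAC cells, 10000/well, in HEPES-buffered HBSS plus IBMX. Activity was normalised to urocortin 2 at 100 nM (100%), and EC50 was the concentration giving half-maximal activation.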

[2] = target: T2, CFR1R receptor (Homo sapiens, UniProt P34998); assay: Activity at anti-target CFR1R receptor, cAMP assay in CRF1R-overexpression CHO-K1 cells; assay type: cell-based; details: 100% = Sauvagine at 100 nM
T2 construct: host or cells: CHO-K1 (clone 2)
T2 sequence (P34998 24-415): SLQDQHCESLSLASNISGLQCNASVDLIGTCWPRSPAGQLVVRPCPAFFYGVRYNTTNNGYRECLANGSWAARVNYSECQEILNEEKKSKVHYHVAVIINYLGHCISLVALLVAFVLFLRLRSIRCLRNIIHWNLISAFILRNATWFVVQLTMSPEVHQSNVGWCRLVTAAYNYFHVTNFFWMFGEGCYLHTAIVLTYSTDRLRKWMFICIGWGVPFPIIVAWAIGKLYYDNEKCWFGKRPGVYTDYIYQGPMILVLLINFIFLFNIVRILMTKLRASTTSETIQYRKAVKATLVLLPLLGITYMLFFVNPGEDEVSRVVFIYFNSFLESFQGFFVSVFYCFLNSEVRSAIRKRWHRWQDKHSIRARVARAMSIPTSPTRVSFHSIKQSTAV
Method in brief: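 Uses frozen stocks of CHO-K1 clone 2 cells overexpressing human CRF1R, plated at 4000 cells/well final, with cAMP measured by the same protocol as the TeloHAEC line. Full-activation control: 100 nM Sauvagine.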

[3] = Pharmacokinetics in male Sprague Dawley rats after subcutaneous administration; assay type: in vivo; details: plasma, rat, SC, 0.05 mg/kg
Protocol: The pharmacokinetics of UCN-2 derivatives was studied in male Sprague Dawley rats after subcutaneous administration (SC) at 0.05, 0.1, 0.3 or 1 mg/kg. Peptides were formulated as a solution in 10 mM phosphate pH 7.4 buffer+glycerol 85% (2.3% v/v)). […] The supernatant (200 μL) was analyzed by LC-MSMS. Pharmacokinetic parameters were calculated using established non-compartmental methods. The area under the plasma concentration curve versus time (AUC) was determined using Watson LIMS (version 7.6), with linear trapezoidal interpolation in the ascending slope and logarithmic trapezoidal interpolation in the descending slope. The portion of the AUC from the last measurable concentration to infinity was estimated from the equation, Ct/kel, where Ct represents the last measurable concentration and kel is the elimination rate constant. The latter was determined from the concentration curve versus time by linear regression at the terminal phase of the semi-logarithmic plot.

[4] = as above; assay type: in vivo; details: plasma, rat, IV, 0.025 mg/kg
[5] = Chemical stability in buffer (pH 7.4 / pH 4.5), % purity loss; assay type: physicochemical; details: 100 mM phosphate buffer pH 7.4; 40° C. vs 5° C.; 14 or 28 days
Method in brief: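 LC-UV gave % loss after 14 or 28 days of storage at 5 °C or 40 °C. Samples were diluted supernatants from compound incubated 1 h at room temperature at 10 mg/mL target, in 100 mM acetate pH 4.5 or 100 mM phosphate pH 7.4.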

[6] = In vitro subcutaneous tissue supernatant (SCts) stability and metabolite identification, rat; assay type: in vitro ADME; set-up: remaining at 2 h: dose or concentration left out as unconfirmed; details: for remaining at 2 h: male, Sprague Dawley, rat subcutaneous tissue supernatant (SCts), 37° C
Protocol: In vitro metabolic stability in subcutaneous tissue supernatant (SCts) was studied in male Sprague Dawley rats. Test compounds were incubated […] for 2 hours at 37° C.
Software aided in vitro metabolite identification on SCts stability samples was performed using either Metabolite Pilot (Sciex) or Biopharma Finder (Thermo). In addition, metabolite identification using Metabolite Pilot was performed on plasma samples of Comp Y following SC administration to rat at 1 mg/kg.

**Q.** Which EC50 [1] does the source give for `CC[C@H](C)[C@H](NC(C)=O)C(=O)N[C@H](C(=O)N[C@@H](CC(C)C)C(=O)N[C@@H](CO)C(=O)N[C@@H](CC(C)C)C(=O)N[C@@H](CC(=O)O)C(=O)N[C@@H](C(=O)N1CCC[C@H]1C(=O)N[C@H](C(=O)N[C@@H](CCCCN)C(=O)N[C@@H](CC(C)C)C(=O)N[C@@H](CCCCNC(=O)CC[C@H](NC(=O)CCCCCCCCCCCCCCCCCCC(=O)O)C(=O)O)C(=O)N[C@@H](CCCCN)C(=O)N[C@H](C(=O)N[C@@H](CC(C)C)C(=O)N[C@@H](CC(C)C)C(=O)N[C@@H](CCC(=O)O)C(=O)N[C@@H](CCC(N)=O)C(=O)N[C@@H](CCC(=O)O)C(=O)N[C@@H](CCCCN)C(=O)N[C@@H](CCC(N)=O)C(=O)N[C@@H](CCCCN)C(=O)N[C@@H](C)C(=O)N[C@@H](CCC(N)=O)C(=O)N[C@@H](CCCNC(=N)N)C(=O)N[C@@H](CCC(=O)O)C(=O)N[C@@H](CCC(N)=O)C(=O)N[C@@H](C)C(=O)N[C@@H](CCC(=O)O)C(=O)N[C@H](C(=O)N[C@@H](CC(N)=O)C(=O)NC(C)(C)C(=O)N[C@@H](CCC(N)=O)C(=O)N[C@H](C(=O)N[C@@H](CC(C)C)C(=O)N[C@@H](C)C(=O)N[C@@H](CCC(N)=O)C(=O)N[C@H](C(N)=O)C(C)C)[C@@H](C)CC)[C@@H](C)O)[C@@H](C)CC)[C@@H](C)CC)C(C)C)C(C)C` [compound 212] (Ac-IVLSLD[dV]PIKLK([γGlu-C20 diacid])KILLEQEKQKAQREQAETN[Aib]QILAQV-NH2) here?
**A.** 0.11 nM

**Q.** And the “Emax (% I)” value [2]?
**A.** 41 % I

**Q.** What about the AUC(0-t) [3] of the same compound?
**A.** 4680 ng·h/mL

**Q.** And the Cmax [3]?
**A.** 154 ng/mL

**Q.** What about the Tmax [3] of the same compound?
**A.** 14 h

**Q.** And the half-life [3]?
**A.** 8 h

**Q.** And the AUC(0-t) [4]?
**A.** 4840 ng·h/mL

**Q.** And the half-life [4]?
**A.** 8 h

**Q.** And the “Buffer stability pH 7.4 % purity loss” value [5]?
**A.** 0.3/Not Tested %

**Q.** Which remaining at 2 h [6] does the source give for `CC[C@H](C)[C@H](N)C(=O)N[C@H](C(=O)N[C@@H](CC(C)C)C(=O)N[C@@H](CO)C(=O)N[C@@H](CC(C)C)C(=O)N[C@@H](CC(=O)O)C(=O)N[C@H](C(=O)N1CCC[C@H]1C(=O)N[C@H](C(=O)N[C@@H](CCCCN)C(=O)N[C@@H](CC(C)C)C(=O)N[C@@H](CCCCNC(=O)COCCOCCNC(=O)COCCOCCNC(=O)CC[C@H](NC(=O)CCCCCCCCCCCCCCCCC(=O)O)C(=O)O)C(=O)N[C@@H](CCCCN)C(=O)N[C@H](C(=O)N[C@@H](CC(C)C)C(=O)N[C@@H](CC(C)C)C(=O)N[C@@H](CCC(=O)O)C(=O)N[C@@H](CCC(N)=O)C(=O)N[C@@H](CCC(=O)O)C(=O)N[C@@H](CCCCN)C(=O)N[C@@H](CCC(N)=O)C(=O)N[C@@H](CCCCN)C(=O)N[C@@H](CCCCN)C(=O)N[C@@H](CCC(N)=O)C(=O)N[C@@H](CCCNC(=N)N)C(=O)N[C@@H](CCC(=O)O)C(=O)N[C@@H](CCC(N)=O)C(=O)N[C@@H](C)C(=O)N[C@@H](CCC(=O)O)C(=O)N[C@H](C(=O)N[C@@H](CC(N)=O)C(=O)N[C@@H](CCCCN)C(=O)N[C@@H](CCC(N)=O)C(=O)N[C@H](C(=O)N[C@@H](CC(C)C)C(=O)N[C@@H](C)C(=O)N[C@@H](CCC(N)=O)C(=O)N[C@H](C(N)=O)C(C)C)[C@@H](C)CC)[C@@H](C)O)[C@@H](C)CC)[C@@H](C)CC)C(C)C)C(C)C` [149 (CompY)] (H-IVLSLDVPIKLK([AEEA-AEEA-γGlu-C18 diacid])KILLEQEKQKKQREQAETNKQILAQV-NH2) here?
**A.** 4%

**Q.** With `CC[C@H](C)[C@H](N)C(=O)N[C@H](C(=O)N[C@@H](CC(C)C)C(=O)N[C@@H](CO)C(=O)N[C@@H](CC(C)C)C(=O)N[C@@H](CC(=O)O)C(=O)N[C@@H](C(=O)N1CCC[C@H]1C(=O)N[C@H](C(=O)N[C@@H](CCCCN)C(=O)N[C@@H](CC(C)C)C(=O)N[C@@H](CCCCNC(=O)CC[C@H](NC(=O)CCCCCCCCCCCCCCC(=O)O)C(=O)O)C(=O)N[C@@H](CCC(N)=O)C(=O)N[C@H](C(=O)N[C@@H](CC(C)C)C(=O)N[C@@H](CC(C)C)C(=O)N[C@@H](CCCCN)C(=O)N[C@@H](CCC(N)=O)C(=O)N[C@@H](CCC(=O)O)C(=O)N[C@@H](CCCNC(=N)N)C(=O)N[C@@H](CCC(N)=O)C(=O)N[C@@H](CCCCN)C(=O)N[C@@H](CCCCN)C(=O)N[C@@H](CCC(N)=O)C(=O)N[C@@H](CCCNC(=N)N)C(=O)N[C@@H](CCC(=O)O)C(=O)N[C@@H](CCC(N)=O)C(=O)N[C@@H](C)C(=O)N[C@@H](CCC(=O)O)C(=O)N[C@@H](CCCCN)C(=O)N[C@@H](CC(N)=O)C(=O)N[C@@H](CCCCN)C(=O)N[C@@H](CCC(N)=O)C(=O)N[C@H](C(=O)N[C@@H](CC(C)C)C(=O)N[C@@H](CCC(=O)O)C(=O)N[C@@H](CCC(N)=O)C(=O)N[C@H](C(N)=O)C(C)C)[C@@H](C)CC)[C@@H](C)CC)[C@@H](C)CC)C(C)C)C(C)C` [SEQ ID No. 151, reference compound] (H-IVLSLD[dV]PIKLK([γGlu-C16 diacid])QILLKQERQKKQREQAEKNKQILEQV-NH2) as the compound, how does the “major metabolic soft spot, in vitro” value ([6]; in vitro soft spot identification, rat SCts) read?
**A.** N-terminus

**Q.** Which remaining at 2 h [6] does the source give for `CC[C@H](C)[C@H](N)C(=O)N[C@H](C(=O)N[C@@H](CC(C)C)C(=O)N[C@@H](CO)C(=O)N[C@@H](CC(C)C)C(=O)N[C@@H](CC(=O)O)C(=O)N[C@H](C(=O)N1CCC[C@H]1C(=O)N[C@H](C(=O)N[C@@H](CCCCN)C(=O)N[C@@H](CC(C)C)C(=O)N[C@@H](CCCCNC(=O)CC[C@H](NC(=O)CCCCCCCCCCCCCCC(=O)O)C(=O)O)C(=O)N[C@@H](CCC(N)=O)C(=O)N[C@H](C(=O)N[C@@H](CC(C)C)C(=O)N[C@@H](CC(C)C)C(=O)N[C@@H](CCCCN)C(=O)N[C@@H](CCC(N)=O)C(=O)N[C@@H](CCC(=O)O)C(=O)N[C@@H](CCCNC(=N)N)C(=O)N[C@@H](CCC(N)=O)C(=O)N[C@@H](CCCCN)C(=O)N[C@@H](CCCCN)C(=O)N[C@@H](CCC(N)=O)C(=O)N[C@@H](CCCNC(=N)N)C(=O)N[C@@H](CCC(=O)O)C(=O)N[C@@H](CCC(N)=O)C(=O)N[C@@H](C)C(=O)N[C@@H](CCC(=O)O)C(=O)N[C@@H](CCCCN)C(=O)N[C@@H](CC(N)=O)C(=O)N[C@@H](CCCCN)C(=O)N[C@@H](CCC(N)=O)C(=O)N[C@H](C(=O)N[C@@H](CC(C)C)C(=O)N[C@@H](CCC(=O)O)C(=O)N[C@@H](CCC(N)=O)C(=O)N[C@H](C(N)=O)C(C)C)[C@@H](C)CC)[C@@H](C)CC)[C@@H](C)CC)C(C)C)C(C)C` [151 (CompX)] (H-IVLSLDVPIKLK([γGlu-C16 diacid])QILLKQERQKKQREQAEKNKQILEQV-NH2) here?
**A.** 0%
